{
  "source": "patent US9410125B2",
  "about": "“Medium for mammalian somatic cells and additive therefor” (FUJIREBIO INC., priority 2007, dated 2016)",
  "tested_on": "human bone marrow-derived mesenchymal stem cells (hMSCs)",
  "experiment": "Adipogenic differentiation of hMSCs (Oil Red O staining)",
  "type": "cell-based",
  "conditions": "Example 2, differentiation into adipocytes and osteocytes",
  "method": "Cells maintained for several passages using the conventional medium in (2-2) and 1% S-3, 1% FCS were transferred to wells in a 96-well plate each containing 0.1 mL of an adipocyte differentiation medium (DMEM, 10% FCS, 500 μM isobutylmethylxanthine (IBMX), 1 μM dexamethasone, 1 μM insulin, 1 μM Rosiglitazone) at a cell density of 20,000 cells/cm2, and cultured at 37° C. under 5% CO2 for 14 days, to induce differentiation into adipocytes. differentiated cells were confirmed by Oil Red O staining.\nCells maintained for several passages using conventional medium A and serum-free growth medium A were transferred to wells in a 48-well plate each containing 0.3 mL of an adipocyte differentiation medium (DMEM, 10% FCS, 500 μM IBMX, 1 μM dexamethasone, 1 μM insulin, 1 μM Rosiglitazone) at a cell density of 30,000 cells/cm2, and cultured at 37° C. under 5% CO2 for 14 days, to induce differentiation into adipocytes. differentiated cells were confirmed by Oil Red O staining. […]",
  "data": [
    {"compound": "CCCCCCCCCCCCC/C=C/[C@@H](O)[C@@H](N)COP(=O)(O)O", "note": "[S1P, sphingosine-1-phosphate]", "values": [
      {"measurement": "tendency in differentiation when used instead of LPA as the Edg ligand", "value": "did not change"}
    ]}
  ]
}
